{
  "source": "Sander's compilation of Henry's law constants",
  "test": "Henry solubility constant Hcp at 298.15 K (mol/(m3 Pa))",
  "key": {"[1]": {"conditions": "reference: Kutsuna et al. (2004)"}, "[2]": {"conditions": "reference: Souchon et al. (2004)"}, "[3]": {"conditions": "reference: McFall et al. (2020)"}},
  "data": [
    {"molecule": "CC(=O)OCC(F)(F)F", "note": "[2,2,2-trifluoroethyl ethanoate]", "values": [
      {"measurement": "Henry solubility constant Hcp", "setting": "[1]", "result": 0.0057}
    ]},
    {"molecule": "CSSSC", "note": "[2,3,4-trithiapentane]", "values": [
      {"measurement": "Henry solubility constant Hcp", "setting": "reference: Roberts and Pollien (1997)", "result": 0.021},
      {"measurement": "Henry solubility constant Hcp", "setting": "[2]", "result": 0.014}
    ]},
    {"molecule": "FC(F)(F)Cl", "note": "[chlorotrifluoromethane]", "values": [
      {"measurement": "Henry solubility constant Hcp", "setting": "reference: Park et al. (1982)", "result": "7.8e-06"},
      {"measurement": "Henry solubility constant Hcp", "setting": "reference: Reichl (1995)", "result": "8.9e-06"},
      {"measurement": "Henry solubility constant Hcp", "setting": "reference: Scharlin and Battino (1994)", "result": "9e-06"},
      {"measurement": "Henry solubility constant Hcp", "setting": "reference: Scharlin and Battino (1995)", "result": "9e-06"}
    ]},
    {"molecule": "C/C=C/CCl", "note": "[(E)-1-chloro-2-butene]", "values": [
      {"measurement": "Henry solubility constant Hcp", "setting": "reference: Bakierowska and Trzeszczyński (2003)", "result": 0.0031}
    ]},
    {"molecule": "OCCC(F)(F)C(F)(F)C(F)(F)C(F)(F)F", "note": "[1H,1H,2H,2H-perfluorohexan-1-ol]", "values": [
      {"measurement": "Henry solubility constant Hcp", "setting": "reference: Goss et al. (2006)", "result": 0.013},
      {"measurement": "Henry solubility constant Hcp", "setting": "reference: Lei et al. (2004)", "result": "6.1e-05"},
      {"measurement": "Henry solubility constant Hcp", "setting": "reference: Wu and Chang (2011)", "result": 0.0066}
    ]},
    {"molecule": "FCCl", "note": "[chlorofluoromethane]", "values": [
      {"measurement": "Henry solubility constant Hcp", "setting": "reference: Boggs and Buck (1958)", "result": 0.0015}
    ]},
    {"molecule": "COC(=O)c1ccccc1O", "note": "[2-hydroxybenzoic acid methyl ester]", "values": [
      {"measurement": "Henry solubility constant Hcp", "setting": "reference: Karl et al. (2008)", "result": 0.33}
    ]},
    {"molecule": "CCCCCCOC(C)=O", "note": "[hexyl ethanoate]", "values": [
      {"measurement": "Henry solubility constant Hcp", "setting": "[2]", "result": 0.014}
    ]},
    {"molecule": "CN(Cl)Cl", "note": "[N,N-dichloromethylamine]", "values": [
      {"measurement": "Henry solubility constant Hcp", "setting": "reference: Cimetiere and de Laat (2009)", "result": 0.0033}
    ]},
    {"molecule": "CN(C)CCOCCO", "note": "[dimethylaminoethoxyethanol]", "values": [
      {"measurement": "Henry solubility constant Hcp", "setting": "reference: Nguyen (2013)", "result": 4300}
    ]},
    {"molecule": "O=C(O)C(F)(F)C(F)(F)C(F)(F)C(F)(F)C(F)(F)F", "note": "[perfluorohexanoic acid]", "values": [
      {"measurement": "Henry solubility constant Hcp", "setting": "reference: Kwan (2001)", "result": 1.1}
    ]},
    {"molecule": "Cc1cc(C)nc(Nc2ccccc2)n1", "note": "[pyrimethanil]", "values": [
      {"measurement": "Henry solubility constant Hcp", "setting": "reference: Feigenbrugel and Le Calvé (2021)", "result": 340}
    ]},
    {"molecule": "C[Si](C)(C)O[Si](C)(C)O[Si](C)(C)C", "note": "[octamethyltrisiloxane]", "values": [
      {"measurement": "Henry solubility constant Hcp", "setting": "reference: Xu and Kropscott (2014)", "result": "3.4e-07"}
    ]},
    {"molecule": "FCF", "note": "[difluoromethane]", "values": [
      {"measurement": "Henry solubility constant Hcp", "setting": "reference: Anderson (2011)", "result": 0.00068},
      {"measurement": "Henry solubility constant Hcp", "setting": "reference: Kutsuna (2017)", "result": 0.00064},
      {"measurement": "Henry solubility constant Hcp", "setting": "reference: Maaßen (1995)", "result": 0.00069},
      {"measurement": "Henry solubility constant Hcp", "setting": "reference: Miguel et al. (2000)", "result": 0.0003},
      {"measurement": "Henry solubility constant Hcp", "setting": "reference: Reichl (1995)", "result": 0.00069}
    ]},
    {"molecule": "CCCCCC(C)(C)OC", "note": "[2-methoxy-2-methylheptane]", "values": [
      {"measurement": "Henry solubility constant Hcp", "setting": "reference: Haimi et al. (2006)", "result": 0.0019}
    ]},
    {"molecule": "C1COCCN1", "note": "[1-oxa-4-azacyclohexane]", "values": [
      {"measurement": "Henry solubility constant Hcp", "setting": "reference: Nguyen (2013)", "result": 190}
    ]},
    {"molecule": "CCCC(=O)OCC", "note": "[ethyl butanoate]", "values": [
      {"measurement": "Henry solubility constant Hcp", "setting": "reference: Aprea et al. (2007)", "result": 0.024},
      {"measurement": "Henry solubility constant Hcp", "setting": "reference: Fenclová et al. (2014)", "result": 0.029},
      {"measurement": "Henry solubility constant Hcp", "setting": "reference: Landy et al. (1995)", "result": 0.024},
      {"measurement": "Henry solubility constant Hcp", "setting": "reference: Landy et al. (1996)", "result": 0.04},
      {"measurement": "Henry solubility constant Hcp", "setting": "[2]", "result": 0.026}
    ]},
    {"molecule": "Clc1cc(Cl)c2c(c1Cl)Oc1ccccc1O2", "note": "[1,2,4-trichlorodibenzo-p-dioxin]", "values": [
      {"measurement": "Henry solubility constant Hcp", "setting": "reference: Santl et al. (1994)", "result": 0.27}
    ]},
    {"molecule": "CC(C)C", "note": "[2-methylpropane]", "values": [
      {"measurement": "Henry solubility constant Hcp", "setting": "reference: McAuliffe (1963)", "result": "8.5e-06"},
      {"measurement": "Henry solubility constant Hcp", "setting": "reference: Mohebbi et al. (2012)", "result": 0.00011},
      {"measurement": "Henry solubility constant Hcp", "setting": "reference: Wetlaufer et al. (1964)", "result": "9.9e-06"}
    ]},
    {"molecule": "CC1CNCCN1", "note": "(stereo not drawn) [2-methylpiperazine]", "values": [
      {"measurement": "Henry solubility constant Hcp", "setting": "reference: Nguyen (2013)", "result": 5000}
    ]},
    {"molecule": "O=C(O)CF", "note": "[fluoroethanoic acid]", "values": [
      {"measurement": "Henry solubility constant Hcp", "setting": "reference: Bowden et al. (1998a)", "result": 800}
    ]},
    {"molecule": "COc1cc(CO)ccc1O", "note": "[vanillyl alcohol]", "values": [
      {"measurement": "Henry solubility constant Hcp", "setting": "[3]", "result": 96000}
    ]},
    {"molecule": "ClN(Cl)Cl", "note": "[nitrogen trichloride]", "values": [
      {"measurement": "Henry solubility constant Hcp", "setting": "reference: Holzwarth et al. (1984)", "result": 0.00099}
    ]},
    {"molecule": "C1CCCCC1", "note": "[cyclohexane]", "values": [
      {"measurement": "Henry solubility constant Hcp", "setting": "reference: Tsonopoulos and Wilson (1983)", "result": "5.4e-05"},
      {"measurement": "Henry solubility constant Hcp", "setting": "reference: Tucker et al. (1981)", "result": "5.4e-05"}
    ]},
    {"molecule": "Clc1cc(Cl)c(-c2c(Cl)cc(Cl)c(Cl)c2Cl)cc1Cl", "note": "[2,2',3,4,4',5',6-heptachlorobiphenyl]", "values": [
      {"measurement": "Henry solubility constant Hcp", "setting": "reference: Murphy et al. (1983a)", "result": 0.016}
    ]},
    {"molecule": "COCOC", "note": "[dimethoxymethane]", "values": [
      {"measurement": "Henry solubility constant Hcp", "setting": "reference: Ondo and Dohnal (2007)", "result": 0.063}
    ]},
    {"molecule": "CN(C)c1nc(=O)n(C2CCCCC2)c(=O)n1C", "note": "[hexazinone]", "values": [
      {"measurement": "Henry solubility constant Hcp", "setting": "reference: Mabury and Crosby (1996)", "result": "> 99"}
    ]},
    {"molecule": "Clc1ccc(-c2ccc(Cl)cc2)cc1", "note": "[4,4'-dichlorobiphenyl]", "values": [
      {"measurement": "Henry solubility constant Hcp", "setting": "reference: Charles and Destaillats (2005)", "result": 0.035}
    ]},
    {"molecule": "Clc1c(Cl)c(Cl)c2c(c1Cl)Oc1ccccc1O2", "note": "[1,2,3,4-tetrachlorodibenzo-p-dioxin]", "values": [
      {"measurement": "Henry solubility constant Hcp", "setting": "reference: Santl et al. (1994)", "result": 0.5}
    ]},
    {"molecule": "COc1cc(CCC(C)=O)cc(OC)c1O", "note": "[syringylacetone]", "values": [
      {"measurement": "Henry solubility constant Hcp", "setting": "[3]", "result": "1.2e+06"}
    ]},
    {"molecule": "COC(=O)C(F)(F)F", "note": "[trifluoroethanoic acid, methyl ester]", "values": [
      {"measurement": "Henry solubility constant Hcp", "setting": "[1]", "result": 0.0012}
    ]}
  ]
}
